Counter-ions that a name gives are not always drawn. Like-named read-outs stand apart in the source and are kept apart here.
Key:
in vitro = details: for cytotoxicity at 41 h, 10 µM: human
Cryptosporidium parvum = assay: qRT-PCR assay of the growth of C. parvum in vitro in HCT-8 host cells (primary and secondary screening, EC50); format: cell-based; details: Cryptosporidium parvum, HCT-8; primary screening at 10 uM; read-out: Inhibition (%)
[1] = primary screening at 10 uM, treated vs control

Row | SMILES | Hs18S ΔCT (HCT-8 host cells (Hs18S); human, 41 h, 10 μM) | cytotoxicity at 41 h, 10 µM (in vitro) | inhibition at 10 µM (Cryptosporidium parvum) | Hs18S ΔCT (HCT-8 host cells (Hs18S); [1]) | cytotoxicity at 10 µM (in vitro) | Hs18S ΔCT (HCT-8 host cells (Hs18S))
1 | C[C@]1(OC(=O)/C=C/c2ccccc2)C[C@@H](O)[C@]2(O)C=CO[C@@H](O[C@@H]3O[C@H](CO)[C@@H](O)[C@H](O)[C@H]3O)[C@@H]21 [HARPAGOSIDE] | 0.36 | 21.8% | -42.1% |  |  | 
2 | CC(=O)O[C@H]1CC[C@@]2(C)[C@@H](CC[C@@H]3[C@@H]2CC(=O)[C@]2(C)[C@@H]4[C@H](C[C@@H]32)O[C@]2(CC[C@@H](C)CO2)[C@H]4C)C1 [HECOGENIN ACETATE] | -0.05 | -3.7% | 6.66% |  |  | 
3 | CC1(C)CC[C@]2(C(=O)O)CC[C@]3(C)C(=CC[C@@H]4[C@@]5(C)CC[C@H](O)[C@@](C)(CO)[C@@H]5CC[C@]43C)[C@@H]2C1 [HEDERAGENIN] |  |  | 53.4% | -0.11 | -7.7% | 
4 | C=C1C(=O)O[C@@H]2C[C@@]3(C)CCC[C@H](C)C3=C[C@H]12 [HELENINE] | 0.10 | 6.4% | -20% |  |  | 
5 | O=Cc1ccccc1O[C@@H]1O[C@H](CO)[C@@H](O)[C@H](O)[C@H]1O [HELICIN] | 0.07 |  | 18.6% |  | 4.7% | 
6 | O=C1C=C2CC3(O)COc4c(ccc(O)c4O)C3=C2C=C1O (stereo not drawn) [HEMATEIN] | 0.13 | 8.6% | 10.1% |  |  | 
7 | COc1ccc([C@@H]2CC(=O)c3c(O)cc(O)cc3O2)cc1O [HESPERETIN] | -0.02 | -1.2% | 17.6% |  |  | 
8 | COc1cc(O)c2c(=O)cc(C)oc2c1CC=C(C)C [HETEROPEUCENIN, METHYL ETHER] | -0.10 | -7.2% | -96.3% |  |  | 
9 | NCCc1c[nH]cn1 [HISTAMINE DIHYDROCHLORIDE] |  |  | -20.6% |  | 1.3% | 0.02
10 | COc1ccc2c(c1)O[C@H]1c3ccc(OC)cc3OC[C@@H]21 [HOMOPTEROCARPIN] |  |  | 5.57% | -0.01 | -0.7% | 
11 | C/C=C1\[C@H]2C=C(C)C[C@]1(N)c1ccc(=O)[nH]c1C2 [HUPERZINE A] |  |  | 37.6% | 0.19 | 12.4% | 
12 | C[C@]12CCC(=O)C=C1CC[C@@H]1[C@@H]2[C@@H](O)C[C@@]2(C)[C@H]1CC[C@]2(O)C(=O)CO [HYDROCORTISONE] | -0.47 | -38.1% | 21.1% |  |  | 
13 | CC(C)/C(O)=C1/C(=O)O[C@@H](c2ccoc2)[C@]2(C)C(O)[C@@H](O)[C@@]34OC5(C)OC67CC(C)(C(O)[C@]6(O)[C@@H](O)[C@]3(O5)C12)[C@H](CC(=O)O)[C@]74C (stereo partly drawn) [HYDROLYSIS PRODUCT OF BUSSEIN] | -0.69 | -60.9% | 8.3% |  |  | 
14 | COc1ccc2c(C)cc(=O)oc2c1 [HYMECROMONE METHYL ETHER] | 0.26 | 16.6% | -1.44% |  |  | 
15 | CN1[C@@H]2CC[C@H]1C[C@@H](OC(=O)[C@H](CO)c1ccccc1)C2 [HYOSCYAMINE] |  |  | 36.2% | -0.12 | -8.9% | 
16 | O=c1[nH]cnc2nc[nH]c12 [HYPOXANTHINE] | 0.22 | 14.3% | 23.2% |  |  | 
17 | COc1ccc(-c2oc3c(CC=C(C)C)c(O[C@@H]4O[C@H](CO)[C@@H](O)[C@H](O)[C@H]4O)cc(O)c3c(=O)c2O[C@@H]2O[C@@H](C)[C@H](O)[C@@H](O)[C@H]2O)cc1 [ICARIIN] | -0.22 | -16.4% | -12.3% |  |  | 
18 | OCc1c[nH]c2ccccc12 [INDOLE-3-CARBINOL] |  | -31.7% | 0.77% | -0.40 |  | 
19 | O[C@H]1[C@H](O)[C@@H](O)[C@H](O)[C@@H](O)[C@H]1O [INOSITOL] |  | 5.5% | 11.9% | 0.08 |  | 
20 | COc1c(O)cc(O)cc1O [IRETOL] | -0.32 | -24.7% | -15% |  |  | 
21 | COc1cc(-c2coc3cc(O[C@@H]4O[C@H](CO)[C@@H](O)[C@H](O)[C@H]4O)c(OC)c(O)c3c2=O)cc(O)c1OC [IRIDIN] | -0.14 | -10% | -13.3% |  |  | 

Row | SMILES | Hs18S ΔCT (HCT-8 host cells (Hs18S); human, 41 h, 10 μM) | cytotoxicity at 41 h, 10 µM (in vitro) | inhibition at 10 µM (Cryptosporidium parvum) | Hs18S ΔCT (HCT-8 host cells (Hs18S); [1]) | cytotoxicity at 10 µM (in vitro) | Hs18S ΔCT (HCT-8 host cells (Hs18S))
22 | COc1cc(-c2coc3cc(OC)c(OC)c(OC)c3c2=O)cc(OC)c1OC [IRIGENIN TRIMETHYL ETHER] |  |  | 13.7% | -0.48 | -39.9% | 
23 | COc1cc(-c2coc3cc(OCc4ccccc4)c(OC)c(O)c3c2=O)cc(OCc2ccccc2)c1OC [IRIGENIN, DIBENZYL ETHER] | 0.00 | 0% | -15.7% |  |  | 
24 | COc1cc(-c2coc3cc(O)c(OC)c(O)c3c2=O)cc(O)c1OC [IRIGENIN] | -0.43 | -34.9% | -15% |  |  | 
25 | O=c1c(-c2cc(O)c(O)c(O)c2)coc2cc(O)c(O)c(O)c12 [IRIGENOL] | 0.01 | 0.7% | -13.4% |  |  | 
26 | COc1cc2occc2c2oc(=O)ccc12 [ISOBERGAPTENE] |  |  | 2% | 0.17 | 11% | 
27 | C=C1CCC2C(CC2(C)C)C(=O)CCC1O (stereo not drawn) [ISOKOBUSONE] | -0.25 | -18.7% | -33.5% |  |  | 
28 | O=C(/C=C/c1ccc(O)cc1)c1ccc(O)cc1O [ISOLIQUIRITIGENIN] | -0.34 | -26.4% | 52.9% |  |  | 
29 | COc1cc(O)ccc1C(C)=O [ISOPEONOL] | 0.03 | 2.3% | -12.8% |  |  | 
30 | COc1c2ccoc2c(OC)c2oc(=O)ccc12 [ISOPIMPINELLIN] | -0.24 | -18.1% | -23.2% |  |  | 
31 | COc1cc2c(cc1OC)[C@@H]1C(=O)c3ccc4oc(C(C)C)cc4c3O[C@@H]1CO2 [ISOROTENONE] |  |  | 2.53% | 0.71 | 38.9% | 
32 | COc1cc(O)c2c(=O)c(O)c(-c3ccccc3)oc2c1 [IZALPININ] | 0.18 | 11.5% | 18.4% |  |  | 
33 | O=C(O)/C=C/C=C/c1ccccc1 [JUAREZIC ACID] | -0.57 | -48.4% | -55.9% |  |  | 
34 | O=C1C=CC(=O)c2c(O)cccc21 [JUGLONE] |  |  | -17.7% |  | 11.2% | 0.17
35 | O=c1c(O)c(-c2ccc(O)cc2)oc2cc(O)cc(O)c12 [KAEMPFEROL] | 0.54 | 31.2% | 19.8% |  |  | 
36 | C=C(C)[C@H]1CN[C@H](C(=O)O)[C@H]1CC(=O)O [KAINIC ACID] |  |  | -19.9% | -0.04 | -2.6% | 
37 | NC[C@H]1O[C@H](O[C@H]2[C@H](O)[C@@H](O[C@H]3O[C@H](CO)[C@@H](O)[C@H](N)[C@H]3O)[C@H](N)C[C@@H]2N)[C@H](O)[C@@H](O)[C@@H]1O [KANAMYCIN A SULFATE] | -0.31 | -23.9% | 29.3% |  |  | 
38 | COC1=CC(=O)O[C@@H](/C=C/c2ccccc2)C1 [KAWAIN] |  |  | 16% | -0.15 | -10.9% | 
39 | COc1c2occc2c(OC)c2c(=O)cc(C)oc12 [KHELLIN] | 0.22 | 14.1% | -11.8% |  |  | 
40 | CC(=O)O[C@H]1C[C@@H](OC(C)=O)C(C)(C)[C@@H]2C[C@@H](OC(C)=O)[C@]3(C)[C@H](CC[C@@]4(C)[C@H](c5ccoc5)OC(=O)[C@H]5O[C@@]534)[C@@]12C [KHIVORIN] | 0.12 | 8% | 52.4% |  |  | 
41 | c1coc(CNc2ncnc3[nH]cnc23)c1 [KINETIN] | 0.54 | 31% | -42.7% |  |  | 
42 | CC1(C)C[C@@H]2C(=O)CC[C@H]3O[C@]3(C)CC[C@H]21 [KOBUSONE] | 0.01 | 0.5% | -24.4% |  |  | 
